The results in this text go back to patent US20230321030A1, “KAEMPFEROL AGLYCONE-CONTAINING EXTRACT” (OTSUKA PHARMACEUTICAL CO., LTD., priority 2020, published 2023).

Each structure is given as a SMILES string.

Common to all, as to assay type: in vivo
Data set [1] deals with radish sprouts. In words: L-tyrosine or L-phenylalanine addition effect 1, radish sprouts. Particulars: for effect on the quercetin content / kaempferol content: 21 vol% oxygen; for kaempferol content: aqueous solution 25-400 mg/L, 10 ml/day for 7 days, dark. As to the method: (§1) The amount of kaempferol and quercetin was measured after all of the glycosides of kaempferol and quercetin were hydrolyzed and converted into aglycones. The actual procedure was as follows. After each sample was milled, 2.0 g of the milled product was weighed. After 40 mL of 70% ethanol was added, the sample was suspended with a Polytron homogenizer at room temperature at 20.000 rpm for 1 minute. 1 mL of the suspension was dispensed and weighed into a glass test tube, and 1 mL of 2 N hydrochloric acid was added. After being mixed with a vortex, the mixture was heated at 100° C. for 30 minutes with a heat block. After heating was completed, the resulting product was cooled with ice for at least 5 minutes. After cooling, 5 mL of hexane was added, and the mixture was shaken horizontally 20 times. After centrifugation at 3.000 rpm for 5 minutes at 4° C. with a cooled centrifuge, the upper layer was discarded. 5 mL of ethyl acetate was added, and the mixture was shaken horizontally with a shaker at room temperature at 250 rpm for 10 minutes. After centrifugation with a large cooled centrifuge at 4° C. at 3.000 rpm for 5 minutes, the upper layer was collected in a glass test tube for drying. 5 mL of ethyl acetate was added again to the lower layer, and the mixture was shaken horizontally with a shaker at room temperature at 250 rpm for 10 minutes. After centrifugation at 3.000 rpm at 4° C. for 5 minutes, the upper layer was collected in a glass test tube for drying. The collected upper layer was dried with nitrogen at 60° C. with a nitrogen spray dryer. After drying was complete, 1 mL of an aqueous solution of 70% ethanol was added, and the mixture was treated with an ultrasonic generator for 1 minute to dissolve it with a vortex. After being passed through a 0.45-µm filter, the solution was subjected to HPLC to perform KMP aglycone analysis, thereby determining the amount of KMP aglycones.
(§2) Aqueous solutions containing L-phenylalanine in a concentration of 25, 50, 100, 200, or 400 mg/L, aqueous solutions containing L-tyrosine in a concentration of 25, 50, 100, 200, or 400 mg/L, and aqueous solutions containing both L-tyrosine and L-phenylalanine in a concentration of 25, 50, 100, 200, or 400 mg/L were prepared. As test plants, radish sprouts and broccoli sprouts were prepared. The test plants were given one of the aqueous solutions in an amount of 10 ml/day for 7 days and grown in the dark in an oxygen concentration of 21 vol%. After 7 days, the content of kaempferol and quercetin was measured for each test plant in the same manner as in section B1-2 above. […] Additionally, quercetin was not detected in broccoli sprouts regardless of the addition of L-tyrosine and L-phenylalanine.

Data set [2] has as its system radish sprouts. In words: L-tyrosine or L-phenylalanine addition effect 2, radish sprouts at 21 or 17.5 vol% oxygen. Particulars: 25 or 50 mg/L, 7 days; for kaempferol content: in every oxygen concentration (21 or 17.5 vol%); for rate of increase in the kaempferol content: low-oxygen concentration (17.5 vol%). The protocol:
as §1
Aqueous solutions containing L-phenylalanine in a concentration of 25 or 50 mg/L, and aqueous solutions containing L-tyrosine in a concentration of 25 or 50 mg/L were prepared. As a test plant, radish sprouts were prepared. The test plant was given one of the aqueous solution in an amount of 10 ml/day for 7 days and grown in the dark in an oxygen concentration of 21 vol% or 17.5 vol%. After 7 days, the content of kaempferol and quercetin was measured in the same manner as in section B1-2 above.

In another data set the test system is broccoli sprouts. Kind of data set: L-tyrosine or L-phenylalanine addition effect 1, broccoli sprouts. Particulars: for kaempferol content: aqueous solution 25-400 mg/L, 10 ml/day for 7 days, dark; for kaempferol content / quercetin content: 21 vol% oxygen; for quercetin content: regardless of the addition. The protocol:
as §1, §2

As for `N[C@@H](Cc1ccc(O)cc1)C(=O)O` [L-tyrosine], the “effect on plant growth (total length and weight)” value in the data set on radish sprouts [1] (25-400 mg/L, 7 days) was “no clear effect”; in the data set with radish sprouts [2] (21 or 17.5 vol% oxygen), “no clear effect”; in the data set with broccoli sprouts (25-400 mg/L, 7 days), “no clear effect”. The “effect on the quercetin content” value with radish sprouts [1] (25-400 mg/L, 7 days) was “no significant effect”. Further, the kaempferol content entry in the data set on radish sprouts [1], with radish sprouts [2] and with broccoli sprouts was “increased” in each case. For the same molecule, in the data set with radish sprouts [2], the “rate of increase in the kaempferol content” value is listed as “significantly increased”. The quercetin content entry in the data set with broccoli sprouts (7 days) is given as “not detected”.

Take `N[C@@H](Cc1ccccc1)C(=O)O` [L-phenylalanine]: the “effect on the quercetin content” value in the data set with radish sprouts [1] (25-400 mg/L, 7 days) was “no significant effect”. Moreover, the kaempferol content result with radish sprouts [1], in the data set with radish sprouts [2] and in the data set with broccoli sprouts was “increased” each time. In the data set on radish sprouts [2], the “rate of increase in the kaempferol content” value is listed as “significantly increased”. In addition, the quercetin content result in the data set with broccoli sprouts (7 days) is on record as “not detected”.
